Where only a bound is given, the exact number is not on record here.

Chain of PIK3CD (Human) (O00329 whole entry, looked up): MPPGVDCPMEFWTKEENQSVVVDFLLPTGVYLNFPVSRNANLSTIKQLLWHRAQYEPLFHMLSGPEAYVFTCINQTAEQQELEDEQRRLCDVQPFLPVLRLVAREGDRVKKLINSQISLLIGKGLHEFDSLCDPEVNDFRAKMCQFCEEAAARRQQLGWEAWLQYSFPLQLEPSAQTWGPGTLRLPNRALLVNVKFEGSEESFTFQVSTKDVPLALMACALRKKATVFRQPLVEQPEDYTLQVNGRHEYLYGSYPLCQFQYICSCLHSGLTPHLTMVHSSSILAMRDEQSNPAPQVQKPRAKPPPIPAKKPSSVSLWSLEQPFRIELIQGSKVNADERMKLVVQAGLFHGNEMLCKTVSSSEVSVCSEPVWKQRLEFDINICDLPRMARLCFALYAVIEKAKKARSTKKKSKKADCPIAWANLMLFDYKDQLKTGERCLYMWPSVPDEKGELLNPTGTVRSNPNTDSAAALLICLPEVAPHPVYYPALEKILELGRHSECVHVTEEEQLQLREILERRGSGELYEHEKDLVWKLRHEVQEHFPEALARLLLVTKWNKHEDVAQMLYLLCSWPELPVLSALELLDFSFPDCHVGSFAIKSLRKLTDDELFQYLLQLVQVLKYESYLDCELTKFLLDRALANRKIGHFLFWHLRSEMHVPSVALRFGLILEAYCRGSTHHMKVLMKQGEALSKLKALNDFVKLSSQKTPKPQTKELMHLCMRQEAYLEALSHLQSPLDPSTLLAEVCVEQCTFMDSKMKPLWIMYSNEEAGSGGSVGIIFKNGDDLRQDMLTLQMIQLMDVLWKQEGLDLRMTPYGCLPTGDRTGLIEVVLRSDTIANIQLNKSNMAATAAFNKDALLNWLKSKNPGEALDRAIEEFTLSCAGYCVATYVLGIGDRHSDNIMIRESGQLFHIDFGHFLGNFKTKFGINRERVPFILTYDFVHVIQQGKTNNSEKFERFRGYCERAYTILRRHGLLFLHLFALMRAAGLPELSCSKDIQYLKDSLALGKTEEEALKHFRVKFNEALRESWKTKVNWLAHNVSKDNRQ

The assay concerns the target PIK3CD (Human) (UniProt O00329). Nature of the assay: Enzyme Assay.
Regarding `CCC(=O)N1CC[C@H](Oc2ncnc3c2nc(C2=CCOCC2)n3CC)C1`, the IC50 worked out at 93 nM.

As to `CCn1c(-c2cnc(C)nc2)nc2c(O[C@H]3CCN(C(=O)c4cocn4)C3)ncnc21`, the IC50 is 14 nM.

In turn, `CCn1ncc(-c2nc3c(O[C@H]4CCN(C(=O)OC(C)C)C4)ncnc3n2C)c1C` gave an IC50 of 8.1 nM.

`CCn1ncc(-c2nc3c(O[C@H]4CCN(C(=O)Oc5ccc6ccccc6c5)C4)ncnc3n2C)c1C`: the IC50 was 110 nM.

Consider `CCn1ncc(-c2nc3c(O[C@H]4CCN(c5ccccn5)C4)ncnc3n2C)c1C`, for which the IC50 is 680 nM.

Compound `CCn1ncc(-c2nc3c(OC4CC(C)N(C(=O)OC(C)(C)C)C4)ncnc3n2C)c1C` (configuration not stated) had an IC50 of 1300 nM.

Consider `CCn1ncc(-c2nc3c(O[C@H]4CCN(C(=O)c5cnoc5C5CC5)C4)ncnc3n2C)c1C`, for which the concentration for half-maximal inhibition (IC50) amounted to 79 nM.

Turning to `CCn1ncc(-c2nc3c(OC4CN(C(=O)OC(C)(C)C)C4)ncnc3n2C)c1C`, the IC50 is 85 nM.

The compound `CCC(=O)N[C@H]1CC[C@H](Oc2ncnc3c2nc(-c2cnc(C)nc2)n3CC)CC1` had an IC50 of 330 nM.

On to `CCn1c(-c2cnc(C)nc2)nc2c(O[C@H]3CCN(c4nccs4)C3)ncnc21`, for which the IC50 worked out at 44 nM.

Consider `CCn1c(-c2cnc(C)nc2)nc2c(O[C@H]3CCN(C(=O)N(C)c4ccccc4)C3)ncnc21`, for which the IC50 was 32 nM. The IC50 values of the last two compounds are within 1.5-fold of each other.

Regarding `CCn1ncc(-c2nc3c(O[C@H]4CCN(C(=O)c5c(C)nn(C)c5C)C4)ncnc3n2C)c1C`, the 50% inhibitory concentration (IC50) was 74 nM.

In the case of `CCn1c(-c2cnc(C)nc2)nc2c(O[C@H]3CCN(C(=O)N4CC(OC)C4)C3)ncnc21`, the IC50 stood at 1.8 nM.

As to `CCC(=O)N1CC[C@H](Oc2ncnc3c2nc(-c2ccc(OC)c(C)c2)n3C)C1`, the IC50 came to 4.6 nM.

Regarding `CCn1c(-c2ccc(OC)cn2)nc2c(O[C@H]3CCN(C(=O)C4CC4)C3)ncnc21`, the IC50 stood at 240 nM.

Take `CCn1ncc(-c2nc3c(O[C@H]4CCN(C(=O)c5cccnc5)C4)ncnc3n2C)c1C`: the IC50 amounted to 19 nM.

For `CCNC(=O)N1CC[C@H](Oc2ncnc3c2nc(-c2cnc(C)nc2)n3CC)C1`, the IC50 is 19 nM.

As for `CCC(=O)N1CC[C@H](Oc2ncnc3c2nc(-c2ccc4[nH]ncc4c2)n3C)C1`, the IC50 was determined as 44 nM.

As for `CCn1c(-c2cnc(C)nc2)nc2c(O[C@H]3CCN(C(=O)c4ccn(C)n4)C3)ncnc21`, the IC50 came out at 3 nM.

Turning to `CCC(=O)N1CC[C@H](Oc2ncnc3c2nc(CC(C)C)n3C)C1`, the IC50 was 890 nM.

On to `CCn1c(-c2cnc(C)nc2)nc2c(O[C@H]3CCN(C(=O)N4CCC(C)(C)C4)C3)ncnc21`, for which the IC50 was 3.8 nM.

As to `CCn1c(-c2cnc(C)nc2)nc2c(O[C@H]3CCN(C(=O)[C@@H]4CCC[C@H]4N)C3)ncnc21`, the IC50 came out at 39 nM. Compared with the last compound, the IC50 is about 10-fold higher.

`CCC(=O)N1CC[C@H](Oc2ncnc3c2nc(-c2ccc(Cl)nc2)n3C)C1` registered an IC50 of 16 nM. Against the preceding compound, the IC50 is about 2.4-fold lower.

For the compound `CCn1c(C(=O)NCC2CC2)nc2c(O[C@H]3CCN(C(=O)OC(C)(C)C)C3)ncnc21`, the IC50 was 150 nM.

Regarding `CCn1ncc(-c2nc3c(O[C@H]4CCN(C(=O)c5cnn6cccnc56)C4)ncnc3n2C)c1C`, the IC50 was found to be 11 nM.

The compound `CCC(=O)N1CC[C@H](Oc2ncnc3c2nc(-c2cnn4c2CCCC4)n3C)C1` registered a half-maximal inhibitory concentration (IC50) of 2.4 nM.

The compound `CCn1ncc(-c2nc3c(S[C@H]4CCN(C(=O)OCC(C)C)C4)ncnc3n2C)c1C` had an IC50 of 30 nM.

Regarding `CCOC(=O)N1CC[C@H](Sc2ncnc3c2nc(-c2cnn(CC)c2C)n3C)C1`, the IC50 was 37 nM.

As to `CCn1ncc(-c2nc3c(OC4CCN(C(=O)c5cnco5)C4)ncnc3n2C)c1C` (configuration not stated), the concentration for half-maximal inhibition (IC50) worked out at 17 nM.

The compound `CCn1c(-c2ccc(OC)nc2)nc2c(O[C@H]3CCN(C(=O)C4CC(F)(F)C4)C3)ncnc21` displayed an IC50 of less than 1 nM.

In the case of `CCn1ncc(-c2nc3c(OC4CCN(C(=O)CC5CCOCC5)C4)ncnc3n2C)c1C` (configuration not stated), the IC50 is 31 nM.

In the case of `Cn1cnc2c(O[C@H]3CCN(C(=O)OC(C)(C)C)C3)ncnc21`, the IC50 is 1400 nM.

Consider `CCn1ncc(-c2nc3c(O[C@H]4CCN(CC5CCCCC5)C4)ncnc3n2C)c1C`, for which the IC50 is 300 nM.

The compound `CCC(=O)N1CC[C@H](Oc2ncnc3c2nc(-c2cnn(CC)c2C)n3C)C1` gave an IC50 of 12 nM.

Regarding `CCn1ncc(-c2nc3c(OC4CCN(C(=O)C5CCCCC5)C4)ncnc3n2C)c1C` (configuration not stated), the IC50 came to 22 nM. This IC50 is about 1.8-fold higher than that of the compound before.

As for `CCn1c(-c2cnc(C)c(F)c2)nc2c(O[C@H]3CCN(C(=O)C4CC4)C3)ncnc21`, the IC50 turned out to be 4.3 nM.

Regarding `CCn1c(-c2cnc(C)nc2)nc2c(O[C@@H]3CN(C(=O)OC(C)(C)C)C[C@H]3O)ncnc21.CCn1c(-c2cnc(C)nc2)nc2c(O[C@H]3CN(C(=O)OC(C)(C)C)C[C@@H]3O)ncnc21`, the 50% inhibitory concentration (IC50) came out at 3.7 nM. The IC50 values of the last two compounds are within 1.5-fold of each other.

Turning to `CCn1ncc(-c2nc3c(O[C@H]4CCN(C(=O)c5cnn6ccccc56)C4)ncnc3n2C)c1C`, the IC50 turned out to be 130 nM. Compared with the last compound, the IC50 is about 35-fold higher.

Compound `CCn1ncc(-c2nc3c(O[C@H]4CCN(C(=O)c5ccnn5C(C)C)C4)ncnc3n2C)c1C` had a concentration for half-maximal inhibition (IC50) of 23 nM.

The compound `CCn1ncc(-c2nc3c(S[C@H]4CCN(C(=O)c5ccn(C)n5)C4)ncnc3n2C)c1C` came in with an IC50 of 19 nM.

For `CC[C@@H]1CN(C(=O)OCc2ccccc2)C[C@H]1Oc1ncnc2c1nc(-c1cnc(C)nc1)n2CC.CC[C@H]1CN(C(=O)OCc2ccccc2)C[C@@H]1Oc1ncnc2c1nc(-c1cnc(C)nc1)n2CC`, the IC50 is 90 nM.

Compound `CCn1ncc(-c2nc3c(O[C@H]4CCN(C(=O)c5cnn6cc[nH]c56)C4)ncnc3n2C)c1C` returned an IC50 of 270 nM.

In turn, `CCn1c(N(C)CCO)nc2c(O[C@H]3CCN(C(=O)OC(C)(C)C)C3)ncnc21` showed an IC50 of 830 nM.

The compound `CCn1ncc(-c2nc3c(O[C@H]4CCN(C(=O)c5ccnn5C)C4)ncnc3n2C)c1C` had an IC50 of 22 nM.

With `CCn1c(-c2cnc(C)nc2)nc2c(O[C@H]3CCN(c4ccccc4)C3)ncnc21`, the IC50 was 9.1 nM.

For the compound `CCn1ncc(-c2nc3c(O[C@H]4CCN(C(=O)C(C)(C)C)C4)ncnc3n2C)c1C`, the IC50 stood at 22 nM.

Consider `CCC(=O)N1CCC(Cc2ncnc3c2nc(-c2cnn(CC)c2C)n3C)C1` (configuration not stated), for which the IC50 was 250 nM.

On to `CCC(=O)N1CC[C@H](Oc2ncnc3c2nc(-c2cnc(C(C)(C)C)s2)n3CC)C1`, for which the IC50 is 2.2 nM.

`CCn1ncc(-c2nc3c(O[C@H]4CCN(C(=O)c5cncn5C)C4)ncnc3n2C)c1C` registered an IC50 of 5.4 nM. This IC50 is about 2.5-fold higher than that of the compound before.

`CCn1c(-c2cnc(C)nc2)nc2c(O[C@H]3CCN(c4cnccn4)C3)ncnc21`: the IC50 stood at 32 nM.

Regarding `CCn1c(N2CCC(S(C)(=O)=O)C2)nc2c(O[C@H]3CCN(C(=O)OC(C)(C)C)C3)ncnc21` (some centres not stated), the IC50 turned out to be 700 nM.

Consider `CCC(=O)N1CC[C@H](Oc2ncnc3c2nc(-c2cnc(C)nc2)n3C)C1`, for which the IC50 was 36 nM. This IC50 is about 19-fold lower than that of the compound before.

Regarding `CCn1ncc(-c2nc3c(O[C@H]4CCN(C(=O)C5CCOC(C)(C)C5)C4)ncnc3n2C)c1C` (some centres not stated), the IC50 came out at 1.2 nM.

For the compound `CCn1ncc(-c2nc3c(O[C@H]4CCN(C(=O)C5CCc6nnnn65)C4)ncnc3n2C)c1C` (some centres not stated), the IC50 is 23 nM.

For `CCn1c(-c2cnc(C)nc2)nc2c(O[C@H]3CCN(c4ccc(F)cc4)C3)ncnc21`, the IC50 was 18 nM.

`CCn1c(-c2cnc(C)nc2)nc2c(O[C@H]3CCN(C(=O)N4C5CCC4CC5)C3)ncnc21` came in with an IC50 of 10 nM.

`CCn1c(-c2cnc(OC)c(C)c2)nc2c(O[C@H]3CCN(C(=O)C4CC4)C3)ncnc21` registered an IC50 of less than 1 nM.

Regarding `CCn1c(-c2cnc(C)nc2)nc2c(O[C@H]3CCN(C(=O)OCCN(C)C)C3)ncnc21`, the IC50 turned out to be 38 nM.

With `CCn1ncc(-c2nc3c(O[C@H]4CCN(C(=O)C5CC(F)(F)C5)C4)ncnc3n2C)c1C`, the concentration for half-maximal inhibition (IC50) came out at 13 nM.

In turn, `CCn1c(-c2ccnc(OC)c2)nc2c(O[C@H]3CCN(C(=O)C4CC4)C3)ncnc21` displayed an IC50 of 20 nM. Compared with the last compound, the IC50 is about 1.5-fold higher.

Compound `CCn1c(-c2cnc(C)nc2)nc2c(O[C@H]3CCN(C(=O)C4CNC4)C3)ncnc21` returned an IC50 of 70 nM. This IC50 lies about 3.5-fold higher than the previous one.

`CCn1ncc(-c2nc3c(O[C@H]4CCN(C(=O)C5(C)CCOCC5)C4)ncnc3n2C)c1C`: the IC50 worked out at 28 nM.

In the case of `CCn1c(-c2cnc(C)nc2)nc2c(O[C@H]3CCN(C(=O)C4CC4C)C3)ncnc21` (some centres not stated), the IC50 worked out at 1.5 nM. This IC50 lies about 19-fold lower than the previous one.

`CCn1ncc(-c2nc3c(OC4CCN(C(=O)COC)C4)ncnc3n2C)c1C` (configuration not stated): the concentration for half-maximal inhibition (IC50) was 77 nM.

With `CCn1ncc(-c2nc3c(CC4CCN(C(=O)OC(C)(C)C)C4)ncnc3n2C)c1C` (configuration not stated), the IC50 worked out at 560 nM.

`CCn1c(N2CCC(C)CC2)nc2c(O[C@H]3CCN(C(=O)OC(C)(C)C)C3)ncnc21` yielded an IC50 of 380 nM.

Compound `CCn1ncc(-c2nc3c(O[C@H]4CCN(C(=O)c5cnn(C(C)C)c5)C4)ncnc3n2C)c1C` gave an IC50 of 30 nM.

`CCn1ncc(-c2nc3c(O[C@H]4CCN(C(=O)c5nnsc5C)C4)ncnc3n2C)c1C` displayed an IC50 of 5.3 nM. This IC50 is about 5.7-fold lower than that of the compound before.

In turn, `CCn1ncc(-c2nc3c(O[C@H]4CCN(C(=O)NC(C)(C)CC(C)(C)C)C4)ncnc3n2C)c1C` had an IC50 of 4.7 nM.

Compound `CCn1ncc(-c2nc3c(O[C@H]4CCN(c5nccc(-c6ccco6)n5)C4)ncnc3n2C)c1C` displayed an IC50 of 128 nM. This IC50 lies about 27-fold higher than the previous one.

`CCn1c(C(=O)NC2CCCCC2)nc2c(O[C@H]3CCN(C(=O)OC(C)(C)C)C3)ncnc21` came in with an IC50 of 72 nM.

With `CCn1ncc(-c2nc3c(S[C@H]4CCN(c5ncnc6sccc56)C4)ncnc3n2C)c1C`, the IC50 stood at 5.5 nM.

Compound `CCn1c(-c2cnc(C)nc2)nc2c(O[C@H]3CCN(C(=O)N4CCC(C)(O)C4)C3)ncnc21` (some centres not stated) yielded a concentration for half-maximal inhibition (IC50) of 7.3 nM.

`CCn1c(-c2ccc(OC)nc2)nc2c(O[C@H]3CCN(C(=O)C4CCOCC4)C3)ncnc21` gave an IC50 of 1.6 nM.

As for `CCC(=O)N1CC[C@H](Oc2ncnc3c2nc(-c2cnc(C)nc2)n3CC)C1`, the IC50 was 13 nM.

In turn, `CCn1ncc(-c2nc3c(O[C@H]4CCN(S(=O)(=O)c5ccc6ccccc6c5)C4)ncnc3n2C)c1C` gave an IC50 of 220 nM. Against the preceding compound, the IC50 is about 17-fold higher.

`CCn1ncc(-c2nc3c(O[C@H]4CCN(C(=O)c5cccc6ccccc56)C4)ncnc3n2C)c1C` came in with an IC50 of 67 nM.

The compound `CCn1ncc(-c2nc3c(O[C@H]4CCN(C(=O)c5cc6occc6[nH]5)C4)ncnc3n2C)c1C` displayed an IC50 of 210 nM.

`CCn1ncc(-c2nc3c(O[C@H]4CCN(C(=O)c5oncc5C)C4)ncnc3n2C)c1C` yielded an IC50 of 5.1 nM. This IC50 is about 41-fold lower than that of the compound before.

For `CCn1c(-c2cnc(C)nc2)nc2c(O[C@H]3CCN(C(=O)CC(C)(C)N)C3)ncnc21`, the IC50 was 9.3 nM.

`CCn1ncc(-c2nc3c(O[C@H]4CCN(S(=O)(=O)c5cn(C)cn5)C4)ncnc3n2C)c1C`: the IC50 was 1500 nM. This IC50 is about 160-fold higher than that of the compound before.

In turn, `CCn1ncc(-c2nc3c(O[C@H]4CCN(C(=O)c5nccn5C)C4)ncnc3n2C)c1C` returned an IC50 of 35 nM.

(Values after the Kinase Knowledgebase extract (Sharma et al. 2016).)
